{
  "source": "patent US11452751B2",
  "about": "“Medication dispensing system” (priority 2015, dated 2022)",
  "origin": "cited, not measured here",
  "key": {"[1]": {"test_system": "cannabinoid receptors"}, "[2]": {"test_system": "estrogen receptor-positive and estrogen receptor-negative breast cancer cell lines", "settings": "inducing apoptosis in a concentration-dependent manner"}, "[3]": {"test_system": "nontumorigenic mammary cells"}, "[4]": {"test_system": "prostate cell line, PC-3", "settings": "Ruiz et al. 1999"}, "[5]": {"target": "T1, androgen receptor in the prostate gland (Homo sapiens, UniProt P10275)", "T1 construct": "host or cells: prostate gland", "T1 sequence (P10275 1-920)": "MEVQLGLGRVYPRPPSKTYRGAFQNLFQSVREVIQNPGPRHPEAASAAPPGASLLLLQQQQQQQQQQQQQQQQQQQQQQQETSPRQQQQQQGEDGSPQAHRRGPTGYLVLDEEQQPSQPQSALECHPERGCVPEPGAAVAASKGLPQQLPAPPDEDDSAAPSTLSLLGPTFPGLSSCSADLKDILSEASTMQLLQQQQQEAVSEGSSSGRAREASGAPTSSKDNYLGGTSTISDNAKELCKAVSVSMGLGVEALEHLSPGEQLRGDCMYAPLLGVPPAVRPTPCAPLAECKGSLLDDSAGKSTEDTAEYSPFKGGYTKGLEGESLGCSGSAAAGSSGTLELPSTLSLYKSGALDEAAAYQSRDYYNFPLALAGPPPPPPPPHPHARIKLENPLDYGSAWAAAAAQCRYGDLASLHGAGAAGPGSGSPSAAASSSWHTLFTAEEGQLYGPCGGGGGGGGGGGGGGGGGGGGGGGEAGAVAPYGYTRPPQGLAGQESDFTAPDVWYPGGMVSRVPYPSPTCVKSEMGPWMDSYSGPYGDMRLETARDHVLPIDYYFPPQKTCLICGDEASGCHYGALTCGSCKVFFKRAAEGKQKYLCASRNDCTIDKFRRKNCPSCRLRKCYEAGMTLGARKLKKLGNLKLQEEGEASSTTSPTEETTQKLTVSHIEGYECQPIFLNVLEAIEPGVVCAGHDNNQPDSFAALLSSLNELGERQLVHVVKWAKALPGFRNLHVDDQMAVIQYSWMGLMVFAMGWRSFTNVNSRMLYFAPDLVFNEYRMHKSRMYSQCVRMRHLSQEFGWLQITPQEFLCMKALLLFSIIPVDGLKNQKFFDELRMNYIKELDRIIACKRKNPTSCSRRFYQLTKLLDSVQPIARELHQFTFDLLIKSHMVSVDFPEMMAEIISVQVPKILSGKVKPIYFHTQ"}, "[6]": {"target": "CB1 receptor (Homo sapiens, UniProt P21554)", "sequence (P21554 whole entry)": "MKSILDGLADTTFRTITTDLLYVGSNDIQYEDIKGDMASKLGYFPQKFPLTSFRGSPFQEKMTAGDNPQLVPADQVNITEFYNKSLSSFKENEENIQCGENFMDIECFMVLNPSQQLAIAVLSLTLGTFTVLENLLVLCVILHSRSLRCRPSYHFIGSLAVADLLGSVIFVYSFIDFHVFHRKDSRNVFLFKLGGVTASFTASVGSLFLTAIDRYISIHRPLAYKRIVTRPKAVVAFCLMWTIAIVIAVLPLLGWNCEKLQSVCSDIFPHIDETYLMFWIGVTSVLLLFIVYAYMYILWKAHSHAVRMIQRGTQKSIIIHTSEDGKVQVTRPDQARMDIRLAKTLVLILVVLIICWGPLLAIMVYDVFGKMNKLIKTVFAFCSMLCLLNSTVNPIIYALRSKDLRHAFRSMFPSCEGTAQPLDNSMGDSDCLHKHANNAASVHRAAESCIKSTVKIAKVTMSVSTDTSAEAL"}, "[7]": {"assay": "not given", "remark": "listed apart in the source"}},
  "data": [
    {"compound": "C=C(C)[C@@H]1CCC(C)=C[C@H]1c1c(O)cc(CCCCC)cc1O", "note": "[CBD, Cannabidiol]", "values": [
      {"measurement": "affinity to cannabinoid receptors", "setting": "[1]", "result": "low affinity"},
      {"measurement": "survival of breast cancer cell lines", "setting": "[2]", "result": "inhibited the survival"},
      {"measurement": "effect on nontumorigenic mammary cells", "setting": "[3]", "result": "little effect"}
    ]},
    {"compound": "CCCCCc1cc(O)c2c(c1)OC(C)(C)[C@@H]1CCC(C)=C[C@@H]21", "note": "[THC, Tetrahydrocannabinol]", "values": [
      {"measurement": "apoptosis", "setting": "[4]", "result": "causes apoptosis"},
      {"measurement": "specific binding of dihydroxytestosterone to the androgen receptor", "setting": "[5]", "result": "inhibits specific binding"},
      {"measurement": "pain sensitivity", "setting": "cold-pressor test after administration, dronabinol oral capsules 10 mg or 20 mg", "result": "decreased pain sensitivity"},
      {"measurement": "duration of effects", "setting": "compared with smoked marijuana", "result": "lasted longer than smoked marijuana"},
      {"measurement": "time after administration at which pain reduction effects were felt", "setting": "on the average, cold-pressor test", "result": 180, "unit": "min"}
    ]},
    {"compound": "CCCc1cc(O)c2c(c1)OC(C)(C)[C@@H]1CCC(C)=C[C@@H]21", "note": "[THCV, Tetrahydrocannabivarin]", "values": [
      {"measurement": "mode of action at CB1 receptor", "setting": "[6]", "result": "CB1 receptor antagonist"}
    ]},
    {"compound": "vitamin E", "values": [
      {"measurement": "reduction in breast cancer incidence", "setting": "[7]; pre-menopausal women with a family history of breast cancer, highest quantity of vitamin E consumed", "result": 43, "unit": "%"},
      {"measurement": "risk reduction of breast cancer", "setting": "[7]; women without a family history of breast cancer", "result": 16, "unit": "%"}
    ]}
  ]
}
